Source: PMC9865890, “N-Derivatives of (Z)-Methyl 3-(4-Oxo-2-thioxothiazolidin-5-ylidene)methyl)-1H-indole-2-carboxylates as Antimicrobial Agents—In Silico and In Vitro Evaluation” (Pharmaceuticals, 2023)
≈ marks a conversion by molar mass, not a printed value. Like-named read-outs stand apart in the source and are kept apart here.

How the values were obtained:
Type in all cases: cell-based
[1] = tested on: Bacillus cereus (clinical isolate); test: Antibacterial microdilution (MIC/MBC); details: Bacillus cereus, B.c. (B. cereus); for MIC: read-out: MIC
Procedure: (§1) The synthesized compounds (Table 1) were evaluated for their antibacterial activity against a panel of eight species using a microdilution method with ampicillin and streptomycin as reference drugs. […] The order of activity can be presented as: 8 > 11 > 2 > 1 > 12 > 3 > 17 > 7 > 5 > 13 > 14 > 16 > 9 > 4 = 6 > 15 > 10. […] Cloacae. […] The most sensitive bacteria appeared to be En. cloacae, while E. coli was the most resistant one, followed by M. flavus.
(§2) The following Gram-negative bacteria: Escherichia coli (ATCC 35210), Enterobacter cloacae (clinical isolate), Salmonella typhimurium (ATCC 13311), as well as Gram-positive bacteria: Listeria monocytogenes (NCTC 7973), Bacillus cereus (clinical isolate), and Staphylococcus aureus (ATCC 6538) were used. The organisms were obtained from the Mycological Laboratory, Department of Plant Physiology, Institute for Biological Research “Siniša Stankovic”, Belgrade, Serbia. The minimum inhibitory (MIC) and minimum bactericidal (MBC) concentrations were determined by the modified microdilution method, as previously reported.

[2] = tested on: Enterobacter cloacae (clinical isolate); test: Antibacterial microdilution (MIC/MBC); details: Enterobacter cloacae, En.cl (En. cloacae); for MIC: read-out: MIC
Procedure: as §1, §2

[3] = tested on: Escherichia coli (ATCC 35210); test: Antibacterial microdilution (MIC/MBC); details: Escherichia coli, ATCC35210, E. coli; for MIC: read-out: MIC
Procedure: as §1, §2

[4] = tested on: Listeria monocytogenes (NCTC 7973); test: Antibacterial microdilution (MIC/MBC); details: Listeria monocytogenes, NCTC7973, L.m. (L. monocytogenes); for MIC: read-out: MIC
Procedure: as §1, §2

[5] = tested on: M. flavus; test: Antibacterial microdilution (MIC/MBC); details: Micrococcus flavus; M.f. (M. flavus)
Procedure: as §1, §2

[6] = tested on: P. aeruginosa; test: Antibacterial microdilution (MIC/MBC); details: Pseudomonas aeruginosa, P.a. (P. aeruginosa); for MIC: read-out: MIC
Procedure: as §1, §2

[7] = tested on: Salmonella typhimurium (ATCC 13311); test: Antibacterial microdilution (MIC/MBC); details: S.t. (S. typhimurium)
Procedure: as §1, §2

[8] = tested on: Staphylococcus aureus (ATCC 6538); test: Antibacterial microdilution (MIC/MBC); details: S.a. (S. aureus)
Procedure: as §1, §2

[9] = tested on: A. ochraceus; test: Antifungal bioassay (MIC/MFC); details: Aspergillus ochraceus, A.o. (A. ochraceus); for MIC: read-out: MIC
Procedure: (§3) For the antifungal bioassays, six fungi were used: […] The organisms were obtained from the Mycological Laboratory, Department of Plant Physiology, Institute for Biological Research “Siniša Stankovic”, Belgrade, Serbia. All experiments were performed in duplicate.

[10] = tested on: Aspergillus fumigatus (ATCC 1022); test: Antifungal bioassay (MIC/MFC); details: ATCC1022, A.f. (A. fumigatus)
Procedure: as §3

[11] = tested on: Aspergillus niger (ATCC 6275); test: Antifungal bioassay (MIC/MFC); details: ATCC6275, A.n. (A. niger)
Procedure: as §3

[12] = tested on: Aspergillus versicolor (ATCC 11730); test: Antifungal bioassay (MIC/MFC); details: ATCC11730, A.v. (A. versicolor)
Procedure: as §3

[13] = tested on: P. ochrochloron; test: Antifungal bioassay (MIC/MFC); details: for MFC: P.o. (P. ochrochloron); for MIC: P.o. (P. ochrochloron; text: P. ochramensis)
Procedure: as §3

[14] = tested on: Penicillium funiculosum (ATCC 36839); test: Antifungal bioassay (MIC/MFC); details: Talaromyces funiculosus, ATCC36839; P.f. (P. funiculosum)
Procedure: as §3

[15] = tested on: Trichoderma viride (IAM 5061); test: Antifungal bioassay (MIC/MFC); details: T.v. (T. viride)
Procedure: as §3

[16] = tested on: Penicillium verrucosum var. cyclopium (food isolate); test: Antifungal bioassay (MIC/MFC)
Procedure: For the antifungal bioassays, six fungi were used: Aspergillus niger (ATCC 6275), Aspergillus fumigatus (ATCC 1022), Aspergillus versicolor (ATCC 11730), Penicillium funiculosum (ATCC 36839), Trichoderma viride (IAM 5061), and Penicillium verrucosum var. cyclopium (food isolate). The organisms were obtained from the Mycological Laboratory, Department of Plant Physiology, Institute for Biological Research “Siniša Stankovic”, Belgrade, Serbia. All experiments were performed in duplicate.

[17] = Salmonella enterica, read-out: MIC
[18] = Staphylococcus aureus, ATCC6538
[19] = Staphylococcus aureus, ATCC6538, read-out: MIC
[20] = Penicillium ochrochloron, read-out: MIC
[21] = Trichoderma viride, IAM5061, read-out: MIC

| SMILES | MBC [1] [µg/mL] | MIC [1] [µg/mL] | MBC [2] [µg/mL] | MIC [2] [µg/mL] | MBC [3] [µg/mL] | MIC [3] [µg/mL] | MBC [4] [µg/mL] | MIC [4] [µg/mL] | MBC [5] [µg/mL] | MIC [5] [µg/mL] | MBC [6] [µg/mL] | MIC [6] [µg/mL] | MBC ([7]; Salmonella enterica) [µg/mL] | MIC [7, 17] [µg/mL] | MBC [8, 18] [µg/mL] | MIC [8, 19] [µg/mL] | MFC [9] [µg/mL] | MIC [9] [µg/mL] | MFC [10] [µg/mL] | MIC [10] [µg/mL] | other results |
| --- | --- | --- | --- | --- | --- | --- | --- | --- | --- | --- | --- | --- | --- | --- | --- | --- | --- | --- | --- | --- | --- |
| [H]/N=C(/N)N[C@H]1[C@H](O)[C@@H](O)[C@H](O[C@@H]2O[C@@H](C)[C@](O)(C=O)[C@H]2O[C@@H]2O[C@@H](CO)[C@H](O)[C@@H](O)[C@@H]2NC)[C@@H](N/C(N)=N\[H])[C@@H]1O [Streptomycin, reference compound] | 3 ± 0.5 (≈ 5.16 µM) | 1.5 ± 0.2 (≈ 2.58 µM) | 300 ± 30 (≈ 516 µM) | 200 ± 5 (≈ 344 µM) | 200 (≈ 344 µM) | 100 ± 50 (≈ 172 µM) | 300 ± 30 (≈ 516 µM) | 150 ± 30 (≈ 258 µM) | 300 ± 30 (≈ 516 µM) | 200 (≈ 344 µM) | 200 (≈ 344 µM) | 100 ± 50 (≈ 172 µM) | 200 ± 9 (≈ 344 µM) | 100 ± 50 (≈ 172 µM) | 200 (≈ 344 µM) | 100 (≈ 172 µM) |  |  |  |  |  |
| CC(=O)N1CCN(c2ccc(OCC3COC(Cn4ccnc4)(c4ccc(Cl)cc4Cl)O3)cc2)CC1 (stereo not drawn) [Ketoconazole, reference compound] |  |  |  |  |  |  |  |  |  |  |  |  |  |  |  |  | 500 ± 6 (≈ 941 µM) | 250 ± 50 (≈ 470 µM) | 500 ± 1 (≈ 941 µM) | 200 ± 10 (≈ 376 µM) | MFC [11]: 500 ± 4 µg/mL (≈ 941 µM); MIC [11]: 200 ± 10 µg/mL (≈ 376 µM); MFC [12]: 500 ± 2 µg/mL (≈ 941 µM); MIC [12]: 200 ± 10 µg/mL (≈ 376 µM); MFC ([13]; Penicillium ochrochloron): 3500 ± 30 µg/mL (≈ 6590 µM); MIC [13, 20]: 2500 ± 300 µg/mL (≈ 4700 µM); MFC [14]: 500 ± 3 µg/mL (≈ 941 µM); MIC [14]: 200 ± 10 µg/mL (≈ 376 µM); MFC ([15]; Trichoderma viride, IAM5061): 1500 ± 90 µg/mL (≈ 2820 µM); MIC [15, 21]: 1000 ± 100 µg/mL (≈ 1880 µM); MFC [16]: 300 ± 10 µg/mL (≈ 565 µM); MIC [16]: 200 ± 10 µg/mL (≈ 376 µM) |
| CC1(C)S[C@@H]2[C@H](NC(=O)[C@H](N)c3ccccc3)C(=O)N2[C@H]1C(=O)O [Ampicillin, reference compound] | 25 (≈ 71.5 µM) | 6 ± 3 (≈ 17.2 µM) | 500 ± 100 (≈ 1430 µM) | 250 ± 90 (≈ 715 µM) | 200 (≈ 572 µM) | 100 ± 50 (≈ 286 µM) | 300 ± 30 (≈ 859 µM) | 150 ± 30 (≈ 429 µM) | 500 ± 100 (≈ 1430 µM) | 250 ± 90 (≈ 715 µM) | 500 ± 100 (≈ 1430 µM) | 300 ± 30 (≈ 859 µM) | 200 ± 9 (≈ 572 µM) | 150 ± 30 (≈ 429 µM) | 150 ± 50 (≈ 429 µM) | 100 ± 50 (≈ 286 µM) |  |  |  |  |  |
| COC(=O)c1[nH]c2ccccc2c1/C=C1\SC(=S)N(Cc2ccco2)C1=O [Compound 7, (Z)-methyl 3-((3-(furan-2-ylmethyl)-4-oxo-2-thioxothiazolidin-5-ylidene)methyl)-1H-indole-2-carboxylate] | 60 ± 6 (≈ 151 µM) | 30 ± 10 (≈ 75.3 µM) | 30 ± 10 (≈ 75.3 µM) | 15 ± 9 (≈ 37.6 µM) | 60 ± 6 (≈ 151 µM) | 30 ± 10 (≈ 75.3 µM) | 60 ± 6 (≈ 151 µM) | 30 ± 10 (≈ 75.3 µM) | 60 ± 6 (≈ 151 µM) | 45 ± 3 (≈ 113 µM) | 60 ± 6 (≈ 151 µM) | 30 ± 10 (≈ 75.3 µM) | 30 ± 10 (≈ 75.3 µM) | 15 (≈ 37.6 µM) | 30 ± 10 (≈ 75.3 µM) | 15 (≈ 37.6 µM) | 15 ± 3 (≈ 37.6 µM) | 8 ± 0.6 (≈ 20.1 µM) | 120 ± 40 (≈ 301 µM) | 60 ± 6 (≈ 151 µM) | MIC [7]: 15 ± 9 µg/mL (≈ 37.6 µM); MIC [8]: 15 ± 9 µg/mL (≈ 37.6 µM); MFC [11]: 15 ± 3 µg/mL (≈ 37.6 µM); MIC [11]: 8 ± 0.6 µg/mL (≈ 20.1 µM); MFC [12]: 15 ± 3 µg/mL (≈ 37.6 µM); MIC [12]: 8 ± 0.6 µg/mL (≈ 20.1 µM); MIC [13]: 8 ± 0.6 µg/mL (≈ 20.1 µM); MFC ([13]; Penicillium ochrochloron): 15 ± 3 µg/mL (≈ 37.6 µM); MIC [13, 20]: 8 µg/mL (≈ 20.1 µM); MFC [14]: 30 ± 10 µg/mL (≈ 75.3 µM); MIC [14]: 15 ± 3 µg/mL (≈ 37.6 µM); MIC [15]: 4 ± 1 µg/mL (≈ 10 µM); MFC ([15]; Trichoderma viride, IAM5061): 8 ± 0.6 µg/mL (≈ 20.1 µM); MIC [15, 21]: 4 µg/mL (≈ 10 µM); MFC [16]: 30 ± 10 µg/mL (≈ 75.3 µM); MIC [16]: 15 ± 3 µg/mL (≈ 37.6 µM) |
